Results: patent US20080234345A1, “METHOD FOR REDUCING OR ALLEVIATING INFLAMMATION IN THE DIGESTIVE TRACT” (Gene Logic Inc., priority 2006, published 2008)

Assays:
[1] = system: CD; conditions: cited from earlier work
[2] = system: UC; conditions: cited from earlier work
[3] = system: NF-κB; conditions: in CD; Guidi et al. (2005); cited from earlier work
[4] = system: DSS-induced colitis in Balb/c mice; test: DSS-induced colitis in Balb/c mice (Example 7); assay type: in vivo; conditions: s.c. b.i.d., GL1001 300 mg/kg, sulfasalazine 150 mg/kg
Protocol: A study was designed with six groups of Balb/c mice: naïve control, DSS followed by vehicle, DSS followed by GL1001 30 mg/kg/day, DSS followed by GL1001 100 mg/kg/day, DSS followed by GL1001 300 mg/kg/day, and DSS followed by sulfasalazine 150 mg/kg/day. Administration of DSS was via drinking water, from day 1 to day 6 of the study. […] Administration of vehicle, GL1001 and sulfasalazine was subcutaneous, twice daily, from day 6 until termination of the study (day 16).
Body weight of each animal was measured at days 1, 3 and 5 (pre-initiation of GL1001 or sulfasalazine treatment) and at days 7, 9, 11 and 13 (post-initiation of GL1001 or sulfasalazine treatment). On these same days, disease activity measurements were recorded, including: • (a) rectal prolapse (0=no prolapse, 1=partial prolapse, 2=moderate prolapse, 3=full prolapse); • (b) stool consistency (0=solid pellet, 1=semi-solid, 2=soft stool, 3=diarrhea); and • (c) fecal occult blood (0=no blood present, 1=occult blood, 2=gross blood).
At termination of the study, colon length was determined and histological analysis was conducted as in Example 6.

Row | Compound | induction of remission rate ([1]; CD, after a single dose) [%] | response rate ([1]; CD, after a single dose) [%] | fistula responds (closes), patients ([1]; fistulizing CD) [%] | patients who develop an abscess ([1]; in vivo) [%] | response rates [2] | NF-κB activity [3] | fecal occult blood ([4]; day 7) | stool consistency ([4]; day 7) | percentage weight loss ([4]; day 9) | rectal prolapse ([4]; day 9) | distal colon crypt score [4] | distal colon inflammation score [4] | distal colon total histopathology score [4] | reduction in colon length [4]
1 | Infliximab: anti-TNFα monoclonal antibody | 50 | 80 | 68 | 12 | 50-70% | decrease | – | – | – | – | – | – | – | –
2 | O=C(O)c1cc(/N=N/c2ccc(S(=O)(=O)Nc3ccccn3)cc2)ccc1O [sulfasalazine, reference compound] | – | – | – | – | – | – | reduces | No significant effect | No significant effect | reduces | reduces | reduces | reduces | inhibits reduction
